Read-outs that look alike come from different tables or passages of the source.
Legend:
[1] = system: naproxen induced gastric lesions; assay: Rat gastric lesion procedure (naproxen-induced); format: in vivo; conditions: co-dosed with naproxen 40 mg/kg
Method: Gastric lesions in rat can be induced by ingestion of a non-steroidal anti-inflammatory drug (NSAID) such as naproxen. This effect is apparent with 4 to 6 hours of administration. The therapeutic effect of two different agents on preventing NSAID-induced gastric lesions first as a mono-therapy and then as a combination therapy using a fractional dose approach to test for additivity. The two agents tested include 1) 3-[3-tert-Butylsulfanyl-1-[4-(6-ethoxy-pyridin-3-yl)-benzyl]-5-(pyridin-2-ylmethoxy)-1H-indol-2-yl]-2,2-dimethyl-propionic acid (prepared according to the procedures described in US patent publication no. 2007/0105866; see Compound 2-94), a 5-lipoxygenase activating protein (FLAP) inhibitor and 2) isosorbide mononitrate (a nitric oxide donor).
Procedures: Gastric lesions were induced in 24-hour fasted male Sprague-Dawley rats (weighing 200-300 grams) by administering a single oral dose of naproxen (40 mg/kg), in the mono-therapy phase of the study Compound 2-94 was prepared at 1, 10 and 30 mg/kg and was co-dosed with naproxen. Separately, isosorbide mononitrate was prepared at 3, 10, 30 and 100 mg/kg and was co-dosed with naproxen. The ED50 (defined as the dose to produce the half maximal effect) from this phase of the experiment was used to calculate doses for the combination therapy phase of the study in which Compound 2-94 and isosorbide mononitrate were formulated together and co-dosed with Naproxen. Fractional doses tested include; 2, 1, ½ and ¼ of the ED50 values. In all conditions, four hours alter dosing, rats were anesthetized with inhaled isoflurane and the stomachs removed and cut along the lesser curvature and rinsed thoroughly of any contents using tap water. Each stomach was then pinned down flat with the mucosal layer side up and a digit image captured at an exposure of 10×. These images were then used to determine the total lesion area in mm^2. A Lesion Index (LI) was calculated for each individual stomach by the formula:
LI=[lesion area (mm^2)/total stomach area (mm^2)]×100
Individual drug effects were then determined by calculating the percent inhibition of LI for each dose group relative to the naproxen-alone group using the formula:
% inhibition=100−[LItreatment/LIcontrol(naproxen)×100]
(ED50 of Compound 2-94 with isosorbide mononitrate)/(ED50 ft for Compound 2-94 given alone)+(ED50 of isosorbide mononitrate with Compound 2-94)/(ED50 for isosorbide given alone).
The fractional value indicates what proportion of the single ED50 value was accounted for by the corresponding ED50 value of the combination.

[2] = intravenous, cited from earlier work
[3] = Compound 2-94 and isosorbide mononitrate formulated together, read-out: fraction dose ED50 (dose of the component in the combination)
[4] = oral, 4 h after dosing, estimated, read-out: ED50, inhibition of naproxen induced gastric lesions (mono-therapy)

CCOc1ccc(-c2ccc(Cn3c(CC(C)(C)C(=O)O)c(SC(C)(C)C)c4cc(OCc5ccccn5)ccc43)cc2)cn1 [Compound 2-94, 3-[3-tert-Butylsulfanyl-1-[4-(6-ethoxy-pyridin-3-yl)-benzyl]-5-(pyridin-2-ylmethoxy)-1H-indol-2-yl]-2,2-dimethyl-propionic acid]
ED50 [1, 3]: 2.5 mg/kg
ED50 [1, 4]: 5 mg/kg

O=[N+]([O-])O[C@@H]1CO[C@H]2[C@@H]1OC[C@@H]2O [isosorbide mononitrate]
ED50 [1, 3]: 7.5 mg/kg
ED50 [1, 4]: 15 mg/kg

nitroprusside
decrease of pulmonary vascular resistance (PVR), mean ([2]; 15 patients): 32%
mean PAP after treatment ([2]; 15 patients, decreased from 29.6): 24.2 mm Hg
mean systemic arterial pressure after treatment ([2]; 15 patients, reduced from 89.6, unacceptably low level): 70 mm Hg
effect on pulmonary gas exchange ([2]; by increasing QVA/QT): markedly impairs pulmonary gas exchange
